Measurements: patent US5095018A, “3-benzyl-1,2,4-triazolo[4,3-α] pyrazines” (Burroughs Wellcome Co., priority 1989, dated 1992)
Read-outs that look alike come from different tables or passages of the source.

Experiment: standard maximal electroshock test (MES), anticonvulsant activity
Type: in vivo
Conditions: HCl salt
Description: The anticonvulsant activity of certain compounds of the present invention were determined by a standard maximal electroshock test (MES); that described by L. A. Woodbury and V. D. Davenport, Arch. Int. Pharmacodyn, 1952, 92 95.

[1] = ip, intraperitoneal (I.P.), read-out: ED50 I.P.
[2] = oral (P.O.), read-out: ED50 P.O.

| SMILES | ED50 [1] [mg/kg] | ED50 [2] [mg/kg] |
| --- | --- | --- |
| Nc1nccn2c(Cc3ccccc3F)nnc12 [Example 2, 8-amino-3-(2-fluorobenzyl)-1,2,4-triazolo[4,3-a]pyrazine] | 9.4 | 8 |
| CNc1nccn2c(Cc3ccccc3F)nnc12 [Example 1, 3-(2-fluorobenzyl)-8-(methylamino)-1,2,4-triazolo[4,3-a]pyrazine] | 4.1 | 8.3 |
| CNc1nccn2c(Cc3cc(F)ccc3F)nnc12 [Example 6, 3-(2,5-difluorobenzyl)-8-(methylamino)-1,2,4-triazolo[4,3-a]pyrazine] | 4 | 10.2 |
| Fc1cccc(F)c1Cc1nnc2c(NC3CC3)nccn12 [Example 10, 8-(cyclopropylamino)-3-(2,6-difluorobenzyl)-1,2,4-triazolo[4,3-a]pyrazine] | 7.2 |  |
| CNc1nccn2c(Cc3cccc(F)c3)nnc12 [Example 4, 3-(3-fluorobenzyl)-8-(methylamino)-1,2,4-triazolo[4,3-a]pyrazine] | 4.1 | 20.4 |
| CNc1nccn2c(Cc3c(F)cccc3F)nnc12 [Example 8, 3-(2,6-difluorobenzyl)-8-(methylamino)-1,2,4-triazolo[4,3-a]pyrazine] | 2 | 3 |
| CNc1nccn2c(Cc3ccc(F)cc3)nnc12 [Example 5, 3-(4-fluorobenzyl)-8-(methylamino)-1,2,4-triazolo[4,3-a]pyrazine] | 25 |  |
| Nc1nccn2c(Cc3c(F)cccc3F)nnc12 [Example 9, 8-amino-3-(2,6-difluorobenzyl)-1,2,4-triazolo[4,3-a]pyrazine] | 3.1 | 7.1 |
| Nc1nccn2c(Cc3cc(F)ccc3F)nnc12 [Example 7, 8-amino-3-(2,5-difluorobenzyl)-1,2,4-triazolo[4,3-a]pyrazine] | 7.1 | 20.4 |
| Fc1ccccc1Cc1nnc2c(NC3CC3)nccn12 [Example 11, 8-(cyclopropylamino)-3-(2-fluorobenzyl)-1,2,4-triazolo[4,3-a]pyrazine] | 9.4 |  |
| CNc1nccn2c(Cc3ccccc3)nnc12 [Example 3, 3-Benzyl-8-(methylamino)-1,2,4-triazolo[4,3-a]pyrazine] | 6.2 | 15.6 |
